Reference: US20250026724A1, “(1,4,5-TRISUBSTITUTED 1H-PYRAZOL-3-YL)OXY-2-ALKYLTHIOALKYL ACIDS AND -ALKYL ACID DERIVATIVES, SALTS THEREOF AND USE THEREOF AS ACTIVE HERBICIDAL INGREDIENTS” (BAYER AKTIENGESELLSCHAFT, priority 2021, published 2025)

tested on: Triticum aestivum (TRZAS); experiment: Post-emergence crop plant compatibility, greenhouse pot trial; type: in vivo; conditions: 20 g/ha, post-emergence, in comparison to untreated controls
Protocol: (§1) Seeds of monocotyledonous and dicotyledonous weeds and crop plants are placed in sandy loam in plastic or organic planting pots, covered with soil and cultivated in a greenhouse under controlled growth conditions. 2 to 3 weeks after sowing, the trial plants are treated at the one-leaf stage. The compounds of the invention, formulated in the form of wettable powders (WP) or as emulsion concentrates (EC), are then sprayed onto the green parts of the plants as aqueous suspension or emulsion with addition of 0.5% additive at a water application rate equivalent to 600 l/ha. After about 3 weeks of keeping the trial plants in the greenhouse under optimum growth conditions, the effect of the preparations is rated visually in comparison to untreated controls. For example, 100% activity=the plants have died, 0% activity=like control plants.
(§2) The observed effects on selected crop plants are reported here in comparison to the untreated controls (values in %). The appendices “a”, “b” and “c” give differentiation by dosage used with otherwise the same useful plants tested.
(§3) As shown by results from Tables B1 to B19, inventive compounds of the general formula (I) in the case of post-emergence treatment have good herbicidal efficacy against harmful plants, for example Abutilon theophrasti (ABUTH), Alopecurus myosuroides (ALOMY), Amaranthus retroflexus (AMARE), Avena fatua (AVEFA), Digitaria sanguinalis (DIGSA), Echinochloa crus-galli (ECHCG), Bassia scoparia (KCHSC), Lolium rigidum (LOLRI), Matricaria inodora (MATIN), Pharbitis purpurea (PHBPU), Polygonum convolvulus (POLCO), Setaria viridis (SETVI), Veronica persica (VERPE) and Viola tricolor (VIOTR) at an application rate of 320 g of active substance or less per hectare, and good crop plant compatibility in the case of organisms such as Oryza sativa (ORYSA), Zea mays (ZEAMX), Brassica napus (BRSNW), Glycine max (GLXMA) and Triticum aestivum (TRZAS) at an application rate of 320 g or less per hectare.

SMILES | Post-emergence effect against TRZAS (crop plant compatibility) [%]
COC(=O)C(C)COC(=O)C(Oc1nn(-c2ccccc2F)c(-c2ccc(F)nc2)c1I)SC (centres unmarked) [Example I-53] | 0
COC(=O)CCOC(=O)C(Oc1nn(-c2ccccc2F)c(-c2ccc(F)nc2)c1I)SC (centres unmarked) [Example I-54] | 0

tested on: Glycine max (GLXMA); experiment: as above; type: in vivo; conditions: 20 g/ha, in comparison to untreated controls
Protocol: as §1, §2, §3

SMILES | Post-emergence effect against GLXMA (crop plant compatibility) [%]
COC(=O)C(C)COC(=O)C(Oc1nn(-c2ccccc2F)c(-c2ccc(F)nc2)c1I)SC (centres unmarked) [Example I-53] | 0
COC(=O)CCOC(=O)C(Oc1nn(-c2ccccc2F)c(-c2ccc(F)nc2)c1I)SC (centres unmarked) [Example I-54] | 0

same assay, conditions: 80 g/ha, in comparison to untreated controls

SMILES | Post-emergence effect against GLXMA (crop plant compatibility) [%]
COC(=O)C(C)COC(=O)C(Oc1nn(-c2ccccc2F)c(-c2ccc(F)nc2)c1I)SC (centres unmarked) [Example I-53] | 0
COC(=O)CCOC(=O)C(Oc1nn(-c2ccccc2F)c(-c2ccc(F)nc2)c1I)SC (centres unmarked) [Example I-54] | 0

tested on: Zea mays (ZEAMX); experiment: as above; type: in vivo; conditions: 20 g/ha, in comparison to untreated controls
Protocol: as §1, §2, §3

SMILES | Post-emergence effect against ZEAMX (crop plant compatibility) [%]
COC(=O)CCOC(=O)C(Oc1nn(-c2ccccc2F)c(-c2ccc(F)nc2)c1I)SC (centres unmarked) [Example I-54] | 0

tested on: Setaria viridis (SETVI); experiment: Post-emergence herbicidal action, greenhouse pot trial; type: in vivo; conditions: 320 g/ha, visual rating after about 3 weeks
How it was run: (§4)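 Visual % activity versus untreated controls (100% = plants died, 0% = like control), scored about 3 weeks post-spray. Plants grown in sandy loam pots under greenhouse conditions were treated at the one-leaf stage with WP or EC formulations at 320 g/ha or lower.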

SMILES | Post-emergence effect at 320 g/ha against SETVI in % [%]
COC(=O)C(C)COC(=O)C(Oc1nn(-c2ccccc2F)c(-c2ccc(F)nc2)c1I)SC (centres unmarked) [Example I-53] | 90
COC(=O)CCOC(=O)C(Oc1nn(-c2ccccc2F)c(-c2ccc(F)nc2)c1I)SC (centres unmarked) [Example I-54] | 90

tested on: Bassia scoparia (KCHSC); experiment: as above; type: in vivo; conditions: 320 g/ha
How it was run: as §4

SMILES | Post-emergence effect against KCHSC [%]
COC(=O)C(C)COC(=O)C(Oc1nn(-c2ccccc2F)c(-c2ccc(F)nc2)c1I)SC (centres unmarked) [Example I-53] | 80

tested on: Pharbitis purpurea (PHBPU); experiment: as above; type: in vivo; conditions: 320 g/ha, visual rating after about 3 weeks
How it was run: as §4

SMILES | Post-emergence effect at 320 g/ha against PHBPU in % [%]
COC(=O)C(C)COC(=O)C(Oc1nn(-c2ccccc2F)c(-c2ccc(F)nc2)c1I)SC (centres unmarked) [Example I-53] | 80

tested on: Abutilon theophrasti (ABUTH); experiment: as above; type: in vivo; conditions: 320 g/ha, visual rating after about 3 weeks
How it was run: as §4

SMILES | Post-emergence effect at 320 g/ha against ABUTH in % [%]
COC(=O)C(C)COC(=O)C(Oc1nn(-c2ccccc2F)c(-c2ccc(F)nc2)c1I)SC (centres unmarked) [Example I-53] | 80
COC(=O)CCOC(=O)C(Oc1nn(-c2ccccc2F)c(-c2ccc(F)nc2)c1I)SC (centres unmarked) [Example I-54] | 80

tested on: Alopecurus myosuroides (ALOMY); experiment: as above; type: in vivo; conditions: 320 g/ha, visual rating after about 3 weeks
How it was run: as §4

SMILES | Post-emergence effect at 320 g/ha against ALOMY in % [%]
COC(=O)CCOC(=O)C(Oc1nn(-c2ccccc2F)c(-c2ccc(F)nc2)c1I)SC (centres unmarked) [Example I-54] | 80

tested on: Polygonum convolvulus (POLCO); experiment: as above; type: in vivo; conditions: 320 g/ha, visual rating after about 3 weeks
How it was run: as §4

SMILES | Post-emergence effect at 320 g/ha against POLCO in % [%]
COC(=O)C(C)COC(=O)C(Oc1nn(-c2ccccc2F)c(-c2ccc(F)nc2)c1I)SC (centres unmarked) [Example I-53] | 90
COC(=O)CCOC(=O)C(Oc1nn(-c2ccccc2F)c(-c2ccc(F)nc2)c1I)SC (centres unmarked) [Example I-54] | 80

tested on: Viola tricolor (VIOTR); experiment: as above; type: in vivo; conditions: 80 g/ha
How it was run: as §4

SMILES | Post-emergence effect against VIOTR [%]
COC(=O)C(C)COC(=O)C(Oc1nn(-c2ccccc2F)c(-c2ccc(F)nc2)c1I)SC (centres unmarked) [Example I-53] | 80
COC(=O)CCOC(=O)C(Oc1nn(-c2ccccc2F)c(-c2ccc(F)nc2)c1I)SC (centres unmarked) [Example I-54] | 80

same assay, conditions: 320 g/ha

SMILES | Post-emergence effect against VIOTR [%]
COC(=O)C(C)COC(=O)C(Oc1nn(-c2ccccc2F)c(-c2ccc(F)nc2)c1I)SC (centres unmarked) [Example I-53] | 90
COC(=O)CCOC(=O)C(Oc1nn(-c2ccccc2F)c(-c2ccc(F)nc2)c1I)SC (centres unmarked) [Example I-54] | 90

tested on: Matricaria inodora (MATIN); experiment: as above; type: in vivo; conditions: 320 g/ha, visual rating after about 3 weeks
How it was run: as §4

SMILES | Post-emergence effect at 320 g/ha against MATIN in % [%]
COC(=O)C(C)COC(=O)C(Oc1nn(-c2ccccc2F)c(-c2ccc(F)nc2)c1I)SC (centres unmarked) [Example I-53] | 80
COC(=O)CCOC(=O)C(Oc1nn(-c2ccccc2F)c(-c2ccc(F)nc2)c1I)SC (centres unmarked) [Example I-54] | 80

tested on: Echinochloa crus-galli (ECHCG); experiment: as above; type: in vivo; conditions: 320 g/ha, visual rating after about 3 weeks
How it was run: as §4

SMILES | Post-emergence effect at 320 g/ha against ECHCG in % [%]
COC(=O)C(C)COC(=O)C(Oc1nn(-c2ccccc2F)c(-c2ccc(F)nc2)c1I)SC (centres unmarked) [Example I-53] | 100
COC(=O)CCOC(=O)C(Oc1nn(-c2ccccc2F)c(-c2ccc(F)nc2)c1I)SC (centres unmarked) [Example I-54] | 90

tested on: Amaranthus retroflexus (AMARE); experiment: as above; type: in vivo; conditions: 80 g/ha, visual rating after about 3 weeks
How it was run: as §4

SMILES | Post-emergence effect at 80 g/ha against AMARE in % [%]
COC(=O)CCOC(=O)C(Oc1nn(-c2ccccc2F)c(-c2ccc(F)nc2)c1I)SC (centres unmarked) [Example I-54] | 90

same assay, conditions: 320 g/ha, visual rating after about 3 weeks

SMILES | Post-emergence effect at 320 g/ha against AMARE in % [%]
COC(=O)C(C)COC(=O)C(Oc1nn(-c2ccccc2F)c(-c2ccc(F)nc2)c1I)SC (centres unmarked) [Example I-53] | 90
COC(=O)CCOC(=O)C(Oc1nn(-c2ccccc2F)c(-c2ccc(F)nc2)c1I)SC (centres unmarked) [Example I-54] | 90

tested on: Digitaria sanguinalis (DIGSA); experiment: as above; type: in vivo; conditions: 320 g/ha, visual rating after about 3 weeks
How it was run: as §4

SMILES | Post-emergence effect at 320 g/ha against DIGSA in % [%]
COC(=O)C(C)COC(=O)C(Oc1nn(-c2ccccc2F)c(-c2ccc(F)nc2)c1I)SC (centres unmarked) [Example I-53] | 80
COC(=O)CCOC(=O)C(Oc1nn(-c2ccccc2F)c(-c2ccc(F)nc2)c1I)SC (centres unmarked) [Example I-54] | 80
